Measurements taken from US9172221B2, “Converter building” (ABB Technology AG, priority 2011, dated 2015).

How the values were obtained:
[1] = in vivo
[2] = toxicity / lethal concentration LC50

O=C(C(F)(F)C(F)(F)F)C(F)(C(F)(F)F)C(F)(F)F [C6-ketone, 1,1,1,2,4,4,5,5,5-Nonafluoro-2-(trifluoromethyl)pentan-3-one]
toxicity (in words) [1]: non-toxic
LC50 ([2]; in vivo): about 100,000 ppm

FC(F)(F)COC(F)(F)F [2,2,2-trifluoroethyl-trifluoromethyl ether]
risk for human toxicity ([2]; concluded from available results of mammalian HFC (hydrofluorocarbon) tests): low risk for human toxicity

O=C(C(F)(F)F)C(F)(C(F)(F)F)C(F)(F)F [C5-ketone, 1,1,1,3,4,4,4-heptafluoro-3-(trifluoromethyl)butan-2-one]
toxicity (in words) [1]: practically non-toxic
